{"source": "ChEMBL document CHEMBL4418495", "about": "“Entpd5 inhibitors” (2012)", "key": {"[1]": {"biological_target": "T1, Ectonucleoside triphosphate diphosphohydrolase 5 (Mus musculus) (UniProt Q9WUZ9)", "T1 sequence (whole entry)": "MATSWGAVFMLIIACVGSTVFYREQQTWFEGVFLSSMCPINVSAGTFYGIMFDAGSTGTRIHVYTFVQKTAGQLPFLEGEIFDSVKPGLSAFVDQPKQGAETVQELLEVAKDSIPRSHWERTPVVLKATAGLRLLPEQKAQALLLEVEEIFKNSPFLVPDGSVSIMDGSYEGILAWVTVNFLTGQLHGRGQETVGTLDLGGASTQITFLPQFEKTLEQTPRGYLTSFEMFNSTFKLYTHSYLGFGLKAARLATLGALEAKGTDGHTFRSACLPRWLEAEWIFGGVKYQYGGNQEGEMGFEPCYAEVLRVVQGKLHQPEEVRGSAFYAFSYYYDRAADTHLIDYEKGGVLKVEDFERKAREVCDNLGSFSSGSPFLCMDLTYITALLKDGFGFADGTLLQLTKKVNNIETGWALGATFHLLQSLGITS", "experiment": "Inhibition of ENTPD5 in PTEN knockout mouse MEF cells assessed as induction of ER stress by measuring increase in GRP78/BiP expression at 30 uM incubated for 24 hrs by Western blotting analysis", "type": "cell-based"}, "LNCaP [2]": {"system": "LNCaP", "experiment": "Antitumor activity against human LNCAP cells xenografted in mouse assessed as induction of tumor shrinkage at 1 to 100 mg/kg, ip dosed every other day and measured after 6 weeks by microscopy", "type": "functional, organism-based"}, "LNCaP [3]": {"system": "LNCaP", "experiment": "Antitumor activity against human LNCAP cells xenografted in mouse assessed as reduction in cells left in matrigels at 1 to 100 mg/kg, ip dosed every other day and measured after 6 weeks by hematoxylin and eosin staining based microscopy", "type": "functional, organism-based"}, "[4]": {"biological_target": "T2, Nucleoside diphosphate phosphatase ENTPD5 (Homo sapiens) (UniProt O75356)", "T2 sequence (whole entry)": "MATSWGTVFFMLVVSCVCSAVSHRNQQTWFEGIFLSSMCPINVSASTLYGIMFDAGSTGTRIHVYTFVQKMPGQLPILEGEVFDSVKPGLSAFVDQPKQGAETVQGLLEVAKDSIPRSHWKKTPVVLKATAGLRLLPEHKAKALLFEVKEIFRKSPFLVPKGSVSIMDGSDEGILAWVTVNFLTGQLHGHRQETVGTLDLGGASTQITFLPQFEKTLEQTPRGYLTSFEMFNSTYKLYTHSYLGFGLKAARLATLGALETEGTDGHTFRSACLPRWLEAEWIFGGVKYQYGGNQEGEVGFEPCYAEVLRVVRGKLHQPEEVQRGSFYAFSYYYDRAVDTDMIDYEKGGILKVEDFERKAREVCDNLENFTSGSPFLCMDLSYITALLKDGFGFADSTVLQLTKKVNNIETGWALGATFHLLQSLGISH", "experiment": "Inhibition of human recombinant ENTPD5 expressed in insect cells assessed as reduction in UDP hydrolysis at 1 uM incubated for 1 hr in presence of UMP, GTP and ATP by Escherichia coli UMP kinase pyrH catalyzed UMP phosphorylation coupled luciferase assay"}, "[5]": {"biological_target": "T2, Nucleoside diphosphate phosphatase ENTPD5 (Homo sapiens)", "experiment": "Inhibition of human recombinant ENTPD5 expressed in insect cells assessed as reduction in UDP hydrolysis up to 10 uM incubated for 1 hr in presence of UMP, GTP and ATP by Escherichia coli UMP kinase pyrH catalyzed UMP phosphorylation coupled luciferase assay"}, "[6]": {"biological_target": "T3, Uridylate kinase (Escherichia coli (strain K12)) (UniProt P0A7E9)", "T3 sequence (whole entry)": "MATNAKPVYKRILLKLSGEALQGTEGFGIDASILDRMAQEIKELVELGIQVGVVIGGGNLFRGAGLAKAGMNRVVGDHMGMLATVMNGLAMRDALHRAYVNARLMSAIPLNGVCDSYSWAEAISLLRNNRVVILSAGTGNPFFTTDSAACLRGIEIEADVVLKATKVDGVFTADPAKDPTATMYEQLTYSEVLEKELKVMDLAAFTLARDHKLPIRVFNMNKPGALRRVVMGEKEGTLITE", "experiment": "Inhibition of recombinant Escherichia coli UMP kinase pyrH catalyzed UMP phosphorylation in presence of GTP and ATP incubated for 1 hr by luminescence based assay"}, "[7]": {"biological_target": "T2, Nucleoside diphosphate phosphatase ENTPD5 (Homo sapiens)", "experiment": "Inhibition of human recombinant ENTPD5 expressed in insect cells assessed as reduction in reduction in UDP hydrolysis by measuring inorganic phosphate release incubated for 1 hr by malachite green based assay"}}, "note": "Activity calls are given as the source filed them. Unless noted, the rule behind the calls is not given here.", "data": [{"molecule": "COc1ccccc1/C=N\\NC(=O)c1cc2c(C)nn(-c3ccccc3)c2s1", "values": [{"measurement": "inhibition", "setting": "[1]", "value": "Active"}, {"measurement": "Activity", "setting": "LNCaP [2]", "value": "Active"}, {"measurement": "Activity", "setting": "LNCaP [3]", "value": "Active"}, {"measurement": "inhibition", "setting": "[4]", "value": "Active"}, {"measurement": "inhibition", "setting": "[5]", "value": "Dose-dependent effect"}, {"measurement": "inhibition", "setting": "[6]", "value": "inactive"}, {"measurement": "inhibition", "setting": "[7]", "value": "Active"}]}, {"molecule": "O=C(Oc1ccc2ccccc2c1)c1ccc2c(c1)C1C=CCC1C(C(=O)O)N2", "note": "(stereo unspecified)", "values": [{"measurement": "inhibition", "setting": "[1]", "value": "Active"}, {"measurement": "Activity", "setting": "LNCaP [2]", "value": "Active"}, {"measurement": "Activity", "setting": "LNCaP [3]", "value": "Active"}, {"measurement": "inhibition", "setting": "[4]", "value": "Active"}, {"measurement": "inhibition", "setting": "[5]", "value": "Dose-dependent effect"}, {"measurement": "inhibition", "setting": "[6]", "value": "inactive"}, {"measurement": "inhibition", "setting": "[7]", "value": "Active"}]}, {"molecule": "S=C(Nc1ccc2nc(-c3ccco3)c(-c3ccco3)nc2c1)N1CCCC1", "values": [{"measurement": "inhibition", "setting": "[1]", "value": "Active"}, {"measurement": "Activity", "setting": "LNCaP [2]", "value": "Active"}, {"measurement": "Activity", "setting": "LNCaP [3]", "value": "Active"}, {"measurement": "inhibition", "setting": "[4]", "value": "Active"}, {"measurement": "inhibition", "setting": "[5]", "value": "Dose-dependent effect"}, {"measurement": "inhibition", "setting": "[6]", "value": "inactive"}, {"measurement": "inhibition", "setting": "[7]", "value": "Active"}]}, {"molecule": "COc1ccc(/C=C2\\SC(=S)N(c3ccc([N+](=O)[O-])cc3)C2=O)cc1O", "values": [{"measurement": "inhibition", "setting": "[1]", "value": "Active"}, {"measurement": "Activity", "setting": "LNCaP [2]", "value": "Active"}, {"measurement": "Activity", "setting": "LNCaP [3]", "value": "Active"}, {"measurement": "inhibition", "setting": "[4]", "value": "Active"}, {"measurement": "inhibition", "setting": "[5]", "value": "Dose-dependent effect"}, {"measurement": "inhibition", "setting": "[6]", "value": "inactive"}, {"measurement": "inhibition", "setting": "[7]", "value": "Active"}]}, {"molecule": "Cc1ccc(-c2ccc(C=C3C(=O)NC(=S)NC3=O)o2)c(Br)c1", "values": [{"measurement": "inhibition", "setting": "[1]", "value": "Active"}, {"measurement": "Activity", "setting": "LNCaP [2]", "value": "Active"}, {"measurement": "Activity", "setting": "LNCaP [3]", "value": "Active"}, {"measurement": "inhibition", "setting": "[4]", "value": "Active"}, {"measurement": "inhibition", "setting": "[5]", "value": "Dose-dependent effect"}, {"measurement": "inhibition", "setting": "[6]", "value": "inactive"}, {"measurement": "inhibition", "setting": "[7]", "value": "Active"}]}, {"molecule": "O=C(CN1C(=O)/C(=C2\\SC(N3CCOCC3)=NC2=O)c2ccccc21)Nc1cccc(Br)c1", "values": [{"measurement": "inhibition", "setting": "[1]", "value": "Active"}, {"measurement": "Activity", "setting": "LNCaP [2]", "value": "Active"}, {"measurement": "Activity", "setting": "LNCaP [3]", "value": "Active"}, {"measurement": "inhibition", "setting": "[4]", "value": "Active"}, {"measurement": "inhibition", "setting": "[5]", "value": "Dose-dependent effect"}, {"measurement": "inhibition", "setting": "[6]", "value": "inactive"}, {"measurement": "inhibition", "setting": "[7]", "value": "Active"}]}, {"molecule": "O=C1NC(=O)N(c2ccc(F)cc2)C(=O)/C1=C/c1ccc(Sc2ccc(Cl)cc2)o1", "values": [{"measurement": "inhibition", "setting": "[1]", "value": "Active"}, {"measurement": "Activity", "setting": "LNCaP [2]", "value": "Active"}, {"measurement": "Activity", "setting": "LNCaP [3]", "value": "Active"}, {"measurement": "inhibition", "setting": "[4]", "value": "Active"}, {"measurement": "inhibition", "setting": "[5]", "value": "Dose-dependent effect"}, {"measurement": "inhibition", "setting": "[6]", "value": "inactive"}, {"measurement": "inhibition", "setting": "[7]", "value": "Active"}]}, {"molecule": "O=C1NC(=S)N(c2ccc(Cl)cc2)C(=O)/C1=C\\c1ccc(-c2ccc([N+](=O)[O-])cc2)o1", "values": [{"measurement": "inhibition", "setting": "[1]", "value": "Active"}, {"measurement": "Activity", "setting": "LNCaP [2]", "value": "Active"}, {"measurement": "Activity", "setting": "LNCaP [3]", "value": "Active"}, {"measurement": "inhibition", "setting": "[4]", "value": "Active"}, {"measurement": "inhibition", "setting": "[5]", "value": "Dose-dependent effect"}, {"measurement": "inhibition", "setting": "[6]", "value": "inactive"}, {"measurement": "inhibition", "setting": "[7]", "value": "Active"}]}, {"molecule": "O=C1NC(=S)NC(=O)C1=Cc1ccc(-c2ccc(Br)cc2)o1", "values": [{"measurement": "inhibition", "setting": "[1]", "value": "Active"}, {"measurement": "Activity", "setting": "LNCaP [2]", "value": "Active"}, {"measurement": "Activity", "setting": "LNCaP [3]", "value": "Active"}, {"measurement": "inhibition", "setting": "[4]", "value": "Active"}, {"measurement": "inhibition", "setting": "[5]", "value": "Dose-dependent effect"}, {"measurement": "inhibition", "setting": "[6]", "value": "inactive"}, {"measurement": "inhibition", "setting": "[7]", "value": "Active"}]}, {"molecule": "Cc1cc(I)cc2c1NC(c1ccc([N+](=O)[O-])cc1)C1CC=CC21", "note": "(stereo unspecified)", "values": [{"measurement": "inhibition", "setting": "[1]", "value": "Active"}, {"measurement": "Activity", "setting": "LNCaP [2]", "value": "Active"}, {"measurement": "Activity", "setting": "LNCaP [3]", "value": "Active"}, {"measurement": "inhibition", "setting": "[4]", "value": "Active"}, {"measurement": "inhibition", "setting": "[5]", "value": "Dose-dependent effect"}, {"measurement": "inhibition", "setting": "[6]", "value": "inactive"}, {"measurement": "inhibition", "setting": "[7]", "value": "Active"}]}, {"molecule": "O=C1NC(=S)N(c2ccccc2)C(=O)/C1=C/c1ccc(-c2ccc(F)cc2)o1", "values": [{"measurement": "inhibition", "setting": "[1]", "value": "Active"}, {"measurement": "Activity", "setting": "LNCaP [2]", "value": "Active"}, {"measurement": "Activity", "setting": "LNCaP [3]", "value": "Active"}, {"measurement": "inhibition", "setting": "[4]", "value": "Active"}, {"measurement": "inhibition", "setting": "[5]", "value": "Dose-dependent effect"}, {"measurement": "inhibition", "setting": "[6]", "value": "inactive"}, {"measurement": "inhibition", "setting": "[7]", "value": "Active"}]}, {"molecule": "Cc1ccc2nc(Nc3nc(O)c(CCC(C)C)c(=O)[nH]3)nc(C)c2c1", "values": [{"measurement": "inhibition", "setting": "[1]", "value": "Active"}, {"measurement": "Activity", "setting": "LNCaP [2]", "value": "Active"}, {"measurement": "Activity", "setting": "LNCaP [3]", "value": "Active"}, {"measurement": "inhibition", "setting": "[4]", "value": "Active"}, {"measurement": "inhibition", "setting": "[5]", "value": "Dose-dependent effect"}, {"measurement": "inhibition", "setting": "[6]", "value": "inactive"}, {"measurement": "inhibition", "setting": "[7]", "value": "Active"}]}, {"molecule": "O=C1NC(=O)C(=Cc2ccc(-c3ccc(I)cc3)o2)C(=O)N1", "values": [{"measurement": "inhibition", "setting": "[1]", "value": "Active"}, {"measurement": "Activity", "setting": "LNCaP [2]", "value": "Active"}, {"measurement": "Activity", "setting": "LNCaP [3]", "value": "Active"}, {"measurement": "inhibition", "setting": "[4]", "value": "Active"}, {"measurement": "inhibition", "setting": "[5]", "value": "Dose-dependent effect"}, {"measurement": "inhibition", "setting": "[6]", "value": "inactive"}, {"measurement": "inhibition", "setting": "[7]", "value": "Active"}]}]}
